Test results published in ChEMBL document CHEMBL1127057, “Synthesis, optical resolution, absolute configuration, and preliminary pharmacology of (+)- and (-)-cis-2,3,3a,4,5,9b-hexahydro-1-methyl-1H- pyrrolo-[3,2-h]isoquinoline, a structural analog of nicotine” (J Med Chem, 1993).
pKd, pKi: −log10 of the molar value.

Columns and labels:
[1] = species: Mus musculus; experiment: Inhibition of spontaneous activity in mice; assay type: functional
[2] = Binding affinity was evaluated towards nicotine receptor in mouse brain; assay type: tissue-based
[3] = species: Mus musculus; experiment: Inhibition of tail-flick response (antinociception) in mice; assay type: functional
[4] = species: Mus musculus; experiment: Equilibrium dissociation constant (Kd) was determined

Compound	ED50 [1] [µmol/kg]	pKi [2]	ED50 [3] [µmol/kg]	pKd [4]
c1cc2c(cn1)C1NCCC1CC2 (racemic)	24.8	6.78	25.7	–
CN1CCC[C@H]1c1cccnc1 [NICOTINE]	4.44	–	4.81	8.85
CN1CCC2CCc3ccncc3C21 (single isomer, unassigned; (+))	7.13	–	7.45	–
CN1CCC2CCc3ccncc3C21 (single isomer, unassigned; (-))	61.7	6.22	–	–
